This is an account of results in US20060264419A1 (priority 2003, published 2006).

The target in test [1] is 5-HT2A receptors (Rattus norvegicus, UniProt P14842). Put plainly: in-vitro affinity to 5-HT2A receptors, displacement of [3H]ketanserine (Example A1). The class given is binding. To be noted: read-out: HT2A IC50. The source says:
The 5-HT2A receptors are exposed both to [^3H]ketanserine (a substance which is known for its affinity to the receptor) and also to the test compound. The decrease in the affinity of [^3H]ketanserine to the receptor is an indication of the affinity of the test substance to the 5-HT2A receptor.
In general terms: Displacement assays read how much labelled ligand stays bound in the presence of the test substance.

The target of test [2] is T1, 5 HT2C receptor (Homo sapiens, UniProt P28335).
T1 sequence (P28335 33-458): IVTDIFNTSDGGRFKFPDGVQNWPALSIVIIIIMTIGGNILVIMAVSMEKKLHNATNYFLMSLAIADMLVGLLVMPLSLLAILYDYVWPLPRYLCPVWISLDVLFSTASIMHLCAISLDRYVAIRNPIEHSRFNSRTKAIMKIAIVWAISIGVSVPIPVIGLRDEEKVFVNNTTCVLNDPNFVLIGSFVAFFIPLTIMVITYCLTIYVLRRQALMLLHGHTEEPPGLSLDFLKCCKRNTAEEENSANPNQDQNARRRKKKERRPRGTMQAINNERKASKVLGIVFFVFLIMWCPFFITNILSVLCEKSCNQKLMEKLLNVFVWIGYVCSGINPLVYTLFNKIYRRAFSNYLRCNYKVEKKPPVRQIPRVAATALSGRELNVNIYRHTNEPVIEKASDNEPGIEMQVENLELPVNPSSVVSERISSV
Briefly: affinity to the 5 HT2C receptor. The class given is binding.

In general, IC50 refers to the midpoint of a concentration-inhibition curve.

5-HT2A receptors, sequence (P14842 whole entry): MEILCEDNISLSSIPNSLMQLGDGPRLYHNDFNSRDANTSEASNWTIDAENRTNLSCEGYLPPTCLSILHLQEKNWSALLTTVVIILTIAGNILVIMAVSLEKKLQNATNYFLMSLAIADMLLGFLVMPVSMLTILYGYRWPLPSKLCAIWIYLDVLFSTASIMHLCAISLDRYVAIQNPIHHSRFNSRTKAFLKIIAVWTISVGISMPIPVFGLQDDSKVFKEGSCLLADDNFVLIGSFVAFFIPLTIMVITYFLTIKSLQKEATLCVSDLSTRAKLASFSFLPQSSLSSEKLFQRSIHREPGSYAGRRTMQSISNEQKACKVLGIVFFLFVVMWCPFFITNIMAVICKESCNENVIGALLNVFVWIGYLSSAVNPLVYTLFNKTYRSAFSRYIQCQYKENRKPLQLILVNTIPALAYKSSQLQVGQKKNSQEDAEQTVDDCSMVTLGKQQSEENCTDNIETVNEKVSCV

Regarding `c1ccc(-c2ccc(-n3ncc(CNCc4ccncc4)c3-c3ccccc3)cc2)cc1` [Example 932, (1-Biphenyl-4-yl-5-phenyl-1H-pyrazol-4-yl-methyl)pyridin-4-ylmethylamine], the results for the IC50 in test [1] and in test [2] were 31 nM and 1000 nM, respectively.

`Fc1ccccc1-c1c(CNc2ccon2)cnn1-c1ccc(-c2ccccc2)cc1` [Example 1022, [1-Biphenyl-4-yl-5-(2-fluorophenyl)-1H-pyrazol-4-ylmethyl]isoxazol-3-ylamine]: the figures for the IC50 in test [1] and in test [2] were 240 nM and 1000 nM, respectively.

With `CN1CCN(Cc2cnn(-c3ccc(-c4cc(F)ccc4F)cc3)c2-c2ccccc2F)CC1` [Example 953, 1-[1-(2′,5′-Difluorobiphenyl-4-yl)-5-(2-fluoro-phenyl)-1H-pyrazol-4-ylmethyl]-4-methyl-piperazine], the IC50 in test [1] is 55 nM; in test [2], 470 nM.

Turning to `OC1CCN(Cc2cnn(-c3ccc(-c4ccccc4)cc3)c2-c2ccccc2F)C1` (stereo not shown) [Example 904, 1-[1-Biphenyl-4-yl-5-(2-fluorophenyl)-1H-pyrazol-4-ylmethyl]pyrrolidin-3-ol], the figures for the IC50 in test [1] and in test [2] were 14 nM and 2000 nM, respectively.

Turning to `CN1CCN(Cc2cnn(-c3ccc(-c4ccccc4F)cc3)c2-c2ccccc2F)CC1` [Example 976, 1-[1-(2′-Fluorobiphenyl-4-yl)-5-(2-fluoro-phenyl)-1H-pyrazol-4-ylmethyl]-4-methyl-piperazine], the IC50 in test [1] is 93 nM; in test [2], 371 nM.

Turning to `CC(C)c1ccc(-c2ccc(-n3ncc(CN4CCN(C)CC4)c3-c3ccccc3F)cc2)cc1` [Example 958, 1-[5-(2-Fluorophenyl)-1-(4′-isopropylbiphenyl-4-yl)-1H-pyrazol-4-ylmethyl]-4-methyl-piperazine], the IC50 in test [1] worked out at 58.1 nM; in test [2], 830 nM.

For `CC(C)(C)OC(=O)N1CCN(Cc2cnn(-c3ccc(C(F)(F)F)cc3)c2-c2ccccc2F)CC1` [Example 896, tert-Butyl 4-[5-(2-fluorophenyl)-1-(4-trifluoro-methylphenyl)-1H-pyrazol-4-ylmethyl]-piperazine-1-carboxylate], the half-inhibitory concentration (IC50) in test [1] came to 8 nM; in test [2] it was 43000 nM.

On to `CN1CCN(Cc2cnn(-c3ccc(-c4ccc(F)cc4)cc3)c2-c2ccc(Cl)cc2)CC1` [Example 1057, 1-[5-(4-Chlorophenyl)-1-(4′-fluoro-biphenyl-4-yl)-1H-pyrazol-4-ylmethyl]-4-methylpiperazine], for which the 50% inhibitory concentration (IC50) in test [1] is 460 nM; in test [2], 1000 nM.

As to `CN1CC2CC1CN2Cc1cnn(-c2ccc(-c3ccccc3)cc2)c1-c1ccccc1F` (stereo not shown) [Example 977, 2-[1-Biphenyl-4-yl-5-(2-fluorophenyl)-1H-pyrazol-4-ylmethyl]-5-methyl-2,5-diazabicyclo-[2.2.1]heptane], the IC50 in test [1] was 94 nM; in test [2], 680 nM.

As to `Fc1ccc(CCN2CCN(Cc3cnn(-c4ccccn4)c3-c3ccccc3F)CC2)c(F)c1` [Example 919, 1-[2-(2,4-Difluorophenyl)ethyl]-4-[5-(2-fluoro-phenyl)-1-pyridin-2-yl-1H-pyrazol-4-ylmethyl]-piperazine], the IC50 was 23 nM in test [1] and 1000 nM in test [2].

Take `CN1CCN(Cc2cnn(-c3ccc(C(F)(F)F)cn3)c2-c2ccccc2F)CC1` [Example 941, 1-[5-(2-Fluorophenyl)-1-(5-trifluoro-methylpyridin-2-yl)-1H-pyrazol-4-ylmethyl]-4-methyl-piperazine]: the figures for the IC50 in test [1] and in test [2] were 39 nM and 1000 nM, respectively.

On to `Fc1ccccc1-c1c(CN2CCNCC2)cnn1-c1ccc(-c2ccccc2)cc1` [Example 924, 1-[1-Biphenyl-4-yl-5-(2-fluorophenyl)-1H-pyrazol-4-ylmethyl]piperazine], for which the IC50 in test [1] is 26 nM; in test [2], 660 nM.

On to `CCN(CC)Cc1cnn(-c2ccc(-c3ccccc3)cc2)c1-c1ccccc1F` [Example 897, [1-Biphenyl-4-yl-5-(2-fluorophenyl)-1H-pyrazol-4-ylmethyl]diethylamine], for which the IC50 turned out to be 11 nM in test [1] and 1000 nM in test [2].

As to `Fc1ccccc1-c1c(CN2CCNCC2)cnn1-c1ccc(C(F)(F)F)cc1` [Example 944, 1-[5-(2-Fluorophenyl)-1-(4-trifluoro-methyl-phenyl)-1H-pyrazol-4-ylmethyl]piperazine], the figures for the IC50 in test [1] and in test [2] were 43 nM and 790 nM, respectively.

Turning to `Fc1ccc(-c2ccc(-n3ncc(CN4CCN(C5CCCC5)CC4)c3-c3ccccc3Cl)cc2)cc1` [Example 1027, 1-[5-(2-Chlorophenyl)-1-(4′-fluoro-biphenyl-4-yl)-1H-pyrazol-4-ylmethyl]-4-cyclopentylpiperazine], the IC50 in test [1] is 260 nM; in test [2], 1000 nM.

Regarding `CN(CCO)Cc1cnn(-c2ccc(-c3ccccc3)cc2)c1-c1ccccc1F` [Example 906, 2-{[1-Biphenyl-4-yl-5-(2-fluorophenyl)-1H-pyrazol-4-ylmethyl]methylamino}ethanol], the IC50 turned out to be 16 nM in test [1] and 1000 nM in test [2].

With `O=S1(=O)CCN(Cc2cnn(-c3ccc(-c4ccccc4)cc3)c2-c2ccccc2F)CC1` [Example 945, 4-[1-Biphenyl-4-yl-5-(2-fluorophenyl)-1H-pyrazol-4-ylmethyl]thiomorpholine 1,1-dioxide], the IC50 was found to be 43 nM in test [1] and 1000 nM in test [2].

On to `COc1ccccc1-c1c(CN2CCN(C)CC2)cnn1-c1ccc(-c2ccsc2)cc1` [Example 1055, 1-[5-(2-Methoxyphenyl)-1-(4-thiophen-3-yl-phenyl)-1H-pyrazol-4-ylmethyl]-4-methyl-piperazine], for which the values for the IC50 in test [1] and in test [2] were 460 nM and 300 nM, respectively.

`OC1CCN(Cc2cnn(-c3ccc(-c4ccc(F)cc4)cc3)c2-c2ccc(Cl)cc2)C1` (stereo not shown) [Example 1003, 1-[5-(4-Chlorophenyl)-1-(4′-fluoro-biphenyl-4-yl)-1H-pyrazol-4-ylmethyl]pyrrolidin-3-ol]: the IC50 was determined as 170 nM in test [1] and 1000 nM in test [2].

On to `CN1CCN(Cc2cnn(-c3ccc(-c4ccsc4)cc3)c2-c2ccco2)CC1` [Example 891, 1-[5-Furan-2-yl-1-(4-thiophen-3-ylphenyl)-1H-pyrazol-4-ylmethyl]-4-methylpiperazine], for which the values for the concentration for half-maximal inhibition (IC50) in test [1] and in test [2] were 4.5 nM and 210 nM, respectively.

Take `CN1CCN(Cc2cnn(-c3ccc(-c4ccccc4)cn3)c2-c2ccccc2F)CC1` [Example 922, 1-[5-(2-Fluorophenyl)-1-(5-phenyl-pyridin-2-yl)-1H-pyrazol-4-ylmethyl]-4-methylpiperazine]: the IC50 in test [1] turned out to be 24 nM; in test [2], 660 nM.

For the compound `CCN(CC)Cc1cnn(-c2ccc(-c3ccc(F)cc3)cc2)c1-c1ccccc1Cl` [Example 951, [5-(2-Chlorophenyl)-1-(4′-fluoro-biphenyl-4-yl)-1H-pyrazol-4-ylmethyl]diethylamine], the values for the concentration for half-maximal inhibition (IC50) in test [1] and in test [2] were 53 nM and 1000 nM, respectively.

Consider `CCN(CC)Cc1cnn(-c2ccc(-c3ccc(F)cc3)cc2)c1-c1ccc(Cl)cc1` [Example 1016, [5-(4-Chlorophenyl)-1-(4′-fluoro-biphenyl-4-yl)-1H-pyrazol-4-ylmethyl]diethylamine], for which the results for the IC50 in test [1] and in test [2] were 220 nM and 1000 nM, respectively.
